From PubChem BioAssay AID1963444 (Molecular Pharmacology Branch, DTP, NCI, 2024)
Each block holds one molecule with its values, some of them ahead of it.

Tested on: HSSY-II complex spheroid growth, percent test/control
Assay: Anticancer human tumor HSSY-II cell line growth inhibition [Asc];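 also: spheroids exposed to drug for 7 days before reading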
Settings: for IC50: curve of first compound; for viability, T/C: stronger effect = lower value
Description: Multicellular complex tumor spheroid response to apoptosis pathway targeting inhibitors Alrizomadlin, Pelcitoclax, and Dasminapant in combination with a variety of drugs and investigational agents in selected tumor cell lines
The MDM2 inhibitor alrizomadlin, the Bcl-2/Bcl-xL inhibitor pelcitoclax, and the IAPs inhibitor dasminapant were evaluated both individually and in combination with standard of care and investigational anticancer small molecules within a complex spheroid model of solid tumors. . Complex spheroids include a stromal component modeled by human endothelial cells (HUVEC) and fibroblasts modeled by human mesenchymal stem cells (MSCs). The concentration ranges selected for each drug and investigational agent were based upon clinically achievable concentrations if the clinical Cmax of the agent was known.
Compounds. The drugs and investigational agents: alrizomadlin (APG-115; NSC831270), pelcitoclax (APG-1252; NSC835773), dasminapant (APG-1387;NSC834197), TAK-243 (NSC785004), copanlisib (NSC809693), olaparib (NSC753686), talazoparib (NSC767125), cobimetinib (NSC 768068), eltanexor (KPT-8602, NSC 794443), abemaciclib (NSC 768073), sotorasib (NSC818433), adagrasib (NSC 831453), MRTX-1133 (NSC 836407), Iadademestat (ORY1001, NSC 806812), and RMC-4630 (NSC839698), were obtained from the NCI Developmental Therapeutics Program Chemical Repository. The FDA-approved anticancer drug set is available from the Developmental Therapeutics Program at https://dtp.cancer.gov/organization/dscb/obtaining/available plates.htm. […] The stock solutions were prepared in dimethyl sulfoxide (DMSO, Sigma-Aldrich, St. Louis, MO, cat. D2650) at 800-fold the tested concentration and stored at -70 degrees C prior to their use. All drugs and investigational agents were tested over a range starting from a high concentration at or near the clinical Cmax and decreasing in half-log increments. If the clinical Cmax for an agent had not been determined, the highest concentration tested was 10 microM.
The patient-derived cancer (PDC) cell lines include five colon adenocarcinomas: 186277-243-T-J2-PDC, 616215-338-R-J1-PDC, 439559-082-T-J2-PDC, 463943-066-T-J2-PDC, and 519858-162-T-J1-PDC; three pancreatic carcinomas: 323965-272-R-J2-PDC, 521955-158-R6-J3-PDC, and 521955-158-R2-J5-PDC; two uterine sarcomas: 327498-152-R-J2-PDC and 993429-296-R-J1-PDC; two rhabdomyosarcomas: 755483-174-R-J1-PDC and 772245-204-R-J1-PDC; two soft tissue sarcomas: 126254-015-R-J1-PDC and 494315-158-R-J1-PDC; two malignant fibrous histiocytomas: 317291-083-R-J1-PDC and 596521-263-R-J1-PDC; two breast carcinomas: 171881-019-R-J1-PDC and 885512-296-R-J2-PDC; and one ovarian carcinoma: 6556581-035-R-J-PDC were obtained from the NCI PDMR, (https://pdmr.cancer.gov). The established cell lines HSSY-2 synovial sarcoma (RRID:CVCL 8719), SYO-1 synovial sarcoma (RRID:CVCL_7146), MPNST malignant peripheral neural sheath tumor were obtained from the Sloan Kettering Institute. The following established cell lines were purchased from the American Type Culture Collection (ATCC, Manassas, VA), Sor the received from the NCI repository:, PANC-1 pancreatic carcinoma (CRL-1469, RRID:CVCL_0480), OVCAR-5 ovarian carcinoma (RRID:CVCL_1628), OVCAR-8 ovarian carcinoma (RRID:CVCL_1629), , MCF-7 breast carcinoma (CRL-12584, RRID:CVCL_0031), MDA-MB-231 breast carcinoma (CRL-12532, RRID:CVCL_0062), NCI-H1876 small cell lung carcinoma (CRL-5902, RRID:CVCL_1503), NCI-H510A small cell lung carcinoma (HTB-184, RRID:CVCL_1565), NCI-H1417 (CRL-5869, RRID:CVCL_1469), and NCI-H196 small cell lung carcinoma (CRL-5823, RRID:CVCL_1509). Dr. Peter Houghton (Greehey Children's Cancer Research Institute, University of Texas Health Science Center, San Antonio, TX) provided Rh-18 rhabdomyosarcoma (RRID:CVCL_1659). Pooled donor human umbilical vein endothelial cells (HUVEC, Lonza, cat. CC-2519) and human mesenchymal stem cells (hMSC, Lonza, cat. PT-2501) were purchased from Lonza (Walkersville, MD).
Cell Culture. […]

[1] = second compound 0.03 µM, first compound 0.00316 µM
[2] = second compound 0.03 µM, first compound 0.01 µM
[3] = second compound 0.03 µM, first compound 0.0316 µM
[4] = second compound 0.03 µM, first compound 0.1 µM
[5] = second compound 0.0949 µM, first compound 0.00316 µM
[6] = second compound 0.0949 µM, first compound 0.01 µM
[7] = second compound 0.0949 µM, first compound 0.0316 µM
[8] = second compound 0.0949 µM, first compound 0.1 µM
[9] = second compound 0.3 µM, first compound 0.00316 µM
[10] = second compound 0.3 µM, first compound 0.01 µM
[11] = second compound 0.3 µM, first compound 0.0316 µM
[12] = second compound 0.3 µM, first compound 0.1 µM
[13] = second compound 0.949 µM, first compound 0.00316 µM
[14] = second compound 0.949 µM, first compound 0.01 µM
[15] = second compound 0.949 µM, first compound 0.0316 µM
[16] = second compound 0.949 µM, first compound 0.1 µM
[17] = second compound 3 µM, first compound 0.00316 µM
[18] = second compound 3 µM, first compound 0.01 µM
[19] = second compound 3 µM, first compound 0.0316 µM
[20] = second compound 3 µM, first compound 0.1 µM

IC50 (second compound 0.03 µM): 83.5 nM | IC50 (second compound 0.0949 µM): 16.8 nM | IC50 (second compound 0.3 µM): < 3.16 nM | IC50 (second compound 0.949 µM): < 3.16 nM | IC50 (second compound 3 µM): < 3.16 nM
Compound: CCN1CCN(Cc2ccc(Nc3ncc(F)c(-c4cc(F)c5nc(C)n(C(C)C)c5c4)n3)nc2)CC1 + CCN1C(C(=O)NC23CCC(C(=O)O)(CC2)CC3)C(c2cccc(Cl)c2F)C2(C(=O)Nc3cc(Cl)ccc32)C12CCCCC2
viability, T/C [1]: 90.3% | viability, T/C [2]: 72.4% | viability, T/C [3]: 58.7% | viability, T/C [4]: 49.1% | viability, T/C (second compound 0.03 µM, first compound 0.316 µM): 39.5% | viability, T/C (second compound 0.03 µM, first compound 1 µM): 22.7% | viability, T/C [5]: 63% | viability, T/C [6]: 57.5% | viability, T/C [7]: 41.1% | viability, T/C [8]: 34% | viability, T/C (second compound 0.0949 µM, first compound 0.316 µM): 26.1% | viability, T/C (second compound 0.0949 µM, first compound 1 µM): 12.1% | viability, T/C [9]: 27.4% | viability, T/C [10]: 22.6% | viability, T/C [11]: 24.6% | viability, T/C [12]: 19.2% | viability, T/C (second compound 0.3 µM, first compound 0.316 µM): 13.8% | viability, T/C (second compound 0.3 µM, first compound 1 µM): 5.79% | viability, T/C [13]: 8.49% | viability, T/C [14]: 8.58% | viability, T/C [15]: 8.12% | viability, T/C [16]: 6.47% | viability, T/C (second compound 0.949 µM, first compound 0.316 µM): 6.16% | viability, T/C (second compound 0.949 µM, first compound 1 µM): 3.21% | viability, T/C [17]: 2.42% | viability, T/C [18]: 2.83% | viability, T/C [19]: 2.95% | viability, T/C [20]: 2.31% | viability, T/C (second compound 3 µM, first compound 0.316 µM): 2.12% | viability, T/C (second compound 3 µM, first compound 1 µM): 4.53%

IC50 (second compound 0.03 µM): 10.5 nM | IC50 (second compound 0.0949 µM): 3.06 nM | IC50 (second compound 0.3 µM): < 0.949 nM | IC50 (second compound 0.949 µM): < 0.949 nM | IC50 (second compound 3 µM): < 0.949 nM
Compound: NC(=O)C(=Cn1cnc(-c2cc(C(F)(F)F)cc(C(F)(F)F)c2)n1)c1cncnc1 + CCN1C(C(=O)NC23CCC(C(=O)O)(CC2)CC3)C(c2cccc(Cl)c2F)C2(C(=O)Nc3cc(Cl)ccc32)C12CCCCC2
viability, T/C (second compound 0.03 µM, first compound 0.000949 µM): 97.5% | viability, T/C (second compound 0.03 µM, first compound 0.003 µM): 76% | viability, T/C (second compound 0.03 µM, first compound 0.00949 µM): 51.1% | viability, T/C (second compound 0.03 µM, first compound 0.03 µM): 31.9% | viability, T/C (second compound 0.03 µM, first compound 0.0949 µM): 7.28% | viability, T/C (second compound 0.03 µM, first compound 0.3 µM): 0.44% | viability, T/C (second compound 0.0949 µM, first compound 0.000949 µM): 63.5% | viability, T/C (second compound 0.0949 µM, first compound 0.003 µM): 52.7% | viability, T/C (second compound 0.0949 µM, first compound 0.00949 µM): 26.6% | viability, T/C (second compound 0.0949 µM, first compound 0.03 µM): 15.9% | viability, T/C (second compound 0.0949 µM, first compound 0.0949 µM): 2.85% | viability, T/C (second compound 0.0949 µM, first compound 0.3 µM): 0.23% | viability, T/C (second compound 0.3 µM, first compound 0.000949 µM): 21.4% | viability, T/C (second compound 0.3 µM, first compound 0.003 µM): 18% | viability, T/C (second compound 0.3 µM, first compound 0.00949 µM): 11.6% | viability, T/C (second compound 0.3 µM, first compound 0.03 µM): 3.8% | viability, T/C (second compound 0.3 µM, first compound 0.0949 µM): 0.31% | viability, T/C (second compound 0.3 µM, first compound 0.3 µM): 0.12% | viability, T/C (second compound 0.949 µM, first compound 0.000949 µM): 7.25% | viability, T/C (second compound 0.949 µM, first compound 0.003 µM): 5.2% | viability, T/C (second compound 0.949 µM, first compound 0.00949 µM): 2.01% | viability, T/C (second compound 0.949 µM, first compound 0.03 µM): 0.49% | viability, T/C (second compound 0.949 µM, first compound 0.0949 µM): 0.03% | viability, T/C (second compound 0.949 µM, first compound 0.3 µM): 0.14% | viability, T/C (second compound 3 µM, first compound 0.000949 µM): 2.04% | viability, T/C (second compound 3 µM, first compound 0.003 µM): 1.1% | viability, T/C (second compound 3 µM, first compound 0.00949 µM): 0.3% | viability, T/C (second compound 3 µM, first compound 0.03 µM): 0.2% | viability, T/C (second compound 3 µM, first compound 0.0949 µM): 0.16% | viability, T/C (second compound 3 µM, first compound 0.3 µM): 0.26%

IC50 (second compound 0.03 µM): > 100 nM | IC50 (second compound 0.0949 µM): 2.07 nM | IC50 (second compound 0.3 µM): < 0.316 nM | IC50 (second compound 0.949 µM): < 0.316 nM | IC50 (second compound 3 µM): < 0.316 nM
Compound: NC1CCC(NC2CC2c2ccccc2)CC1 (stereo not given) + CCN1C(C(=O)NC23CCC(C(=O)O)(CC2)CC3)C(c2cccc(Cl)c2F)C2(C(=O)Nc3cc(Cl)ccc32)C12CCCCC2
viability, T/C (second compound 0.03 µM, first compound 0.000316 µM): 61.3% | viability, T/C (second compound 0.03 µM, first compound 0.001 µM): 64% | viability, T/C [1]: 58.6% | viability, T/C [2]: 59.8% | viability, T/C [3]: 55.8% | viability, T/C [4]: 57% | viability, T/C (second compound 0.0949 µM, first compound 0.000316 µM): 51.2% | viability, T/C (second compound 0.0949 µM, first compound 0.001 µM): 51.1% | viability, T/C [5]: 49.1% | viability, T/C [6]: 47.7% | viability, T/C [7]: 51.1% | viability, T/C [8]: 44.3% | viability, T/C (second compound 0.3 µM, first compound 0.000316 µM): 27.9% | viability, T/C (second compound 0.3 µM, first compound 0.001 µM): 24.9% | viability, T/C [9]: 26.9% | viability, T/C [10]: 23.3% | viability, T/C [11]: 25.6% | viability, T/C [12]: 27% | viability, T/C (second compound 0.949 µM, first compound 0.000316 µM): 8.22% | viability, T/C (second compound 0.949 µM, first compound 0.001 µM): 6.71% | viability, T/C [13]: 6.88% | viability, T/C [14]: 6.14% | viability, T/C [15]: 7.47% | viability, T/C [16]: 6.92% | viability, T/C (second compound 3 µM, first compound 0.000316 µM): 1.71% | viability, T/C (second compound 3 µM, first compound 0.001 µM): 1.81% | viability, T/C [17]: 1.94% | viability, T/C [18]: 1.61% | viability, T/C [19]: 1.43% | viability, T/C [20]: 2.12%
